Reference: the NIST ThermoML archive (doi:10.1016/j.jct.2008.09.012)
± gives the expanded uncertainty stated by the source.

Test: molar enthalpy of vaporization or sublimation
Details: 298.15 K; Liquid; Calvet microcalorimetry

| molar enthalpy [kcal/mol] | Compound |
| --- | --- |
| 11.6 ± 0.526 | COc1ccc(F)cc1 [1-fluoro-4-methoxybenzene] |
| 12.5 ± 0.526 | COc1ccccc1F [2-fluoroanisole] |
| 11.5 ± 0.526 | COc1cccc(F)c1 [3-fluoroanisole] |
